This is an account of results in ChEMBL document CHEMBL1201862, “PubChem BioAssay data set” (2004).

Some test systems named below: DLD-1; LOX IMVI; NCI-H460; Malme-3M; SF-268; RXF 393; RPMI-8226; HOP-92; UO-31; HCT-116; SNB-19; EKVX; OVCAR-4; SK-MEL-5; OVCAR-8; SW-620; OVCAR-5; HOP-62; DMS-114; PC-3.
Holding throughout (experiment): growth of human tumour cells (NCI), 48 h

Molecules are shown by their SMILES.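 These data come from cells grown in 96-well plates and exposed to compound for 48 hours at five concentrations. Here, GI50 denotes the concentration required for 50% inhibition of growth.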 Calls of active or inactive are those of the source. Cut-off read from the data, not from the text of the source: active = GI50 up to about 1.1 µM and inactive = higher.

`COC(=O)C(=O)C(C(=O)C(=O)Nc1ccccc1C(N)=O)c1nc2ccc([N+](=O)[O-])cc2nc1O` (stereo not drawn): the GI50 with DLD-1, in the test with LOX IMVI, in the test with NCI-H460, with Malme-3M, with SF-268 and in the test with RXF 393 was > 100 µM (inactive) throughout. For the same molecule, the GI50 with RPMI-8226, with HOP-92, with UO-31, in the test on HCT-116, in the test on SNB-19 and in the test on EKVX was > 100 µM (inactive) each time. Further, the GI50 with OVCAR-4, in the test with SK-MEL-5, with OVCAR-8, with SW-620, in the test on OVCAR-5 and in the test with HOP-62 was > 100 µM (inactive) each time.

For the molecule `COc1cccc([C@@]2(O)c3c(ccc(O)c3OC)[C@H]2OC)c1OC`, the GI50 in the test with DLD-1 was 35.7 µM (inactive); in the test with NCI-H460, 47.4 µM (inactive); with Malme-3M, 46.2 µM (inactive); in the test on SF-268, 33.8 µM (inactive); with RPMI-8226, 39.1 µM (inactive); with HOP-92 it was 62.7 µM (inactive). The GI50 in the test on UO-31 was 36.4 µM (inactive); in the test on SNB-19, 74 µM (inactive); with EKVX it was 47.2 µM (inactive); in the test on OVCAR-4 it was 39.7 µM (inactive); in the test with SK-MEL-5, 37.9 µM (inactive); in the test on OVCAR-8, 38.5 µM (inactive). The values for the GI50 with SW-620, in the test on OVCAR-5 and in the test on HOP-62 were 28.6 µM (inactive), > 100 µM (inactive) and 60.5 µM (inactive), respectively.

Take `Nc1c(C(=O)NC23CC4CC(CC(C4)C2)C3)[n+]([O-])c2ccccc2[n+]1[O-]`: the GI50 with DLD-1, with LOX IMVI, with NCI-H460, with Malme-3M, in the test on SF-268 and with RPMI-8226 was > 100 µM (inactive) each time. Further, the GI50 in the test with HOP-92 was 90.4 µM (inactive); in the test on UO-31, > 100 µM (inactive); with SNB-19, > 100 µM (inactive); with EKVX, > 100 µM (inactive); with OVCAR-4, > 100 µM (inactive); with SK-MEL-5 it was > 100 µM (inactive). In addition, the GI50 in the test on OVCAR-8, in the test on SW-620, in the test with OVCAR-5 and in the test with HOP-62 was > 100 µM (inactive) each time.

In the case of `COC(=O)C12CC3CC(C1)CC(C(=O)OC)(C3)C2`, the GI50 with DLD-1, in the test on LOX IMVI, with NCI-H460, in the test on SF-268, in the test with RPMI-8226 and in the test on HOP-92 was > 100 µM (inactive) each time. Besides, the GI50 in the test on DMS-114, with UO-31, in the test with HCT-116, in the test with SNB-19, with EKVX and in the test on OVCAR-4 was > 100 µM (inactive) each time. Further, the GI50 in the test with SK-MEL-5, in the test with OVCAR-8, in the test with SW-620, in the test on OVCAR-5 and in the test on HOP-62 was > 100 µM (inactive) throughout.

Take `CCCC1=C(CC)C(C(=O)Nc2c(C)cccc2C)=NC(S)N1` (stereo not drawn): the GI50 in the test with DLD-1, in the test on NCI-H460, with Malme-3M, in the test on SF-268, in the test with RPMI-8226 and in the test with HOP-92 was > 100 µM (inactive) in each case. Moreover, the GI50 with DMS-114, with UO-31, in the test on HCT-116, in the test on SNB-19, in the test on EKVX and with OVCAR-4 was > 100 µM (inactive) in each case. Besides, the GI50 in the test on SK-MEL-5, with OVCAR-8, in the test on SW-620, in the test on OVCAR-5 and with HOP-62 was > 100 µM (inactive) throughout.

`CCOC(=O)C1(N)CC1`: the GI50 in the test with LOX IMVI, in the test with NCI-H460, in the test on Malme-3M, in the test with SF-268, in the test on RXF 393 and in the test with RPMI-8226 was > 100 µM (inactive) each time. For the same molecule, the GI50 in the test on HOP-92 was > 100 µM (inactive); in the test with PC-3, 71 µM (inactive); in the test on UO-31, > 100 µM (inactive); with HCT-116 it was > 100 µM (inactive); in the test with SNB-19, > 100 µM (inactive); with EKVX it was > 100 µM (inactive). The GI50 in the test on OVCAR-4, in the test on SK-MEL-5, in the test on OVCAR-8, in the test with SW-620, with OVCAR-5 and in the test with HOP-62 was > 100 µM (inactive) each time.

Consider `CCCCCCCCCCCCCCCCCc1nnc(N)o1`, for which the GI50 in the test on DLD-1, in the test with LOX IMVI, in the test on NCI-H460, with Malme-3M, with SF-268 and with RPMI-8226 was > 100 µM (inactive) in each case. For the same molecule, the GI50 in the test with HOP-92, in the test with UO-31, in the test with HCT-116, in the test with SNB-19, in the test on OVCAR-4 and with OVCAR-8 was > 100 µM (inactive) each time. Besides, the GI50 in the test on SW-620, in the test with OVCAR-5 and in the test on HOP-62 was > 100 µM (inactive) throughout.

Consider `O=C(O)CS(=O)(=O)C(c1ccccc1)c1ccccc1`, for which the GI50 in the test on LOX IMVI, in the test with NCI-H460, in the test on Malme-3M, in the test with SF-268, in the test on RXF 393 and in the test with RPMI-8226 was > 100 µM (inactive) throughout. Moreover, the GI50 in the test on HOP-92, with PC-3, in the test with UO-31, in the test with HCT-116, in the test with SNB-19 and in the test with EKVX was > 100 µM (inactive) each time. The GI50 in the test on OVCAR-4, with SK-MEL-5, in the test with OVCAR-8, in the test with SW-620, in the test on OVCAR-5 and with HOP-62 was > 100 µM (inactive) throughout.

For the molecule `CCOC(=O)C(C(=O)OCC)=C1NC2(c3ccccc3Nc3ccc(C)cc32)C(C#N)S1` (stereo not drawn), the GI50 is 12.1 µM (inactive) with LOX IMVI; 3.27 µM (inactive) with NCI-H460; 15 µM (inactive) in the test with Malme-3M; 9.12 µM (inactive) in the test on SF-268; 6.68 µM (inactive) with RXF 393; 2.32 µM (inactive) in the test on RPMI-8226. The GI50 with HOP-92 is 4.26 µM (inactive); with PC-3 it was 3.56 µM (inactive); in the test on UO-31, 6.28 µM (inactive); in the test with HCT-116, 5.58 µM (inactive); in the test with SNB-19 it was 6.58 µM (inactive); with EKVX, 8.83 µM (inactive). Also, the GI50 was 5.66 µM (inactive) with OVCAR-4; 7.73 µM (inactive) in the test with SK-MEL-5; 8.61 µM (inactive) in the test on OVCAR-8; 6.59 µM (inactive) with SW-620; 11.3 µM (inactive) in the test with OVCAR-5; 11.4 µM (inactive) in the test on HOP-62.

As for `ClCc1nc2cc(Cl)ccc2o1`, the GI50 is 2.44 µM (inactive) in the test on LOX IMVI; 12.5 µM (inactive) in the test with NCI-H460; 11.5 µM (inactive) in the test on Malme-3M; 7.98 µM (inactive) with SF-268; 12.2 µM (inactive) with RXF 393; 1.42 µM (inactive) in the test on RPMI-8226. In addition, the GI50 in the test on HOP-92 is 1.91 µM (inactive); with PC-3, 5.15 µM (inactive); with UO-31, 1.02 µM (active); with HCT-116, 6.97 µM (inactive); with SNB-19, 7.48 µM (inactive); with EKVX it was 3.75 µM (inactive). Also, the GI50 in the test on OVCAR-4 was 1.71 µM (inactive); in the test on SK-MEL-5 it was 11.9 µM (inactive); with OVCAR-8, 4.91 µM (inactive); with SW-620, 3.49 µM (inactive); in the test on OVCAR-5, 18.7 µM (inactive); with HOP-62 it was 2.27 µM (inactive).

Consider `Cc1cc2c(cc1-c1cc3c(cc1C)C(C(C)C)=C(O)C(=O)/C3=C\Nc1cccc3c(N)cccc13)/C(=C/Nc1cccc3c(N)cccc13)C(=O)C(O)=C2C(C)C`, for which the GI50 with LOX IMVI, with NCI-H460, in the test with Malme-3M, with SF-268, in the test on RXF 393 and in the test with RPMI-8226 was > 100 µM (inactive) throughout. Besides, the GI50 in the test on HOP-92 is > 100 µM (inactive); with PC-3, 79.8 µM (inactive); with UO-31, 30.8 µM (inactive); in the test on HCT-116, > 100 µM (inactive); in the test on SNB-19, > 100 µM (inactive); with EKVX, > 100 µM (inactive). The GI50 with OVCAR-4, with SK-MEL-5, in the test on OVCAR-8, in the test on SW-620, in the test with OVCAR-5 and in the test on HOP-62 was > 100 µM (inactive) each time.
